# Results: patent publication US10501482B2, “Compounds for treating spinal muscular atrophy” (Hoffmann-La Roche Inc., priority 2013, dated 2019)
# Structures can show the parent of a compound that is named as a salt.
# Key:
# SMN protein = SMN protein assay (HTRF) in cultured SMA patient fibroblast cells; assay type: cell-based; details: SMA Type 1 human fibroblasts GM03813, 48 hours; for EC1.5x SMN protein (EC1.5x concentration for SMN protein expression): 7-point concentration curve, concentration giving 1.5 times SMN protein vs vehicle; for max. fold increase (maximum fold increase of SMN protein): 7-point concentration data, fold vs vehicle control
# Summary of the method: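 SMA patient fibroblasts seeded at 5,000 cells/well, treated 48 h at 37 °C in triplicate per concentration (7-point series). Lysed in RIPA with protease inhibitors; SMN read by HTRF (anti-SMN d2/kryptate, overnight RT), 665/620 nm ratio. ΔF vs blank, expressed as fold over vehicle; EC1.5x and maximum fold increase derived.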
# [1] = tested on: full length SMN2 minigene mRNA (FL SMN2mini) in HEK293H cells stably transfected with the SMN2-A minigene construct; experiment: SMN2 minigene mRNA splicing RT-qPCR assay in cultured cells; assay type: cell-based; details: Homo sapiens, HEK293-H, 24 hours, 7-point concentration curve, concentration giving 1.5-fold FL SMN2mini mRNA vs vehicle, read-out: EC1.5x minigene (EC1.5x concentration for production of full length SMN2 minigene mRNA)
# Summary of the method: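 Stably transfected HEK293H cells, 10,000/well in DMEM/10% FBS with hygromycin, attached 6 h, then received compound for 24 h at 37° C in duplicate at 7 concentrations. Multiplex RT-qPCR with GAPDH used primers that detect only the minigene. An efficiency-corrected ΔΔCt, GAPDH- and vehicle-normalized, gave EC1.5x concentrations.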
SMILES,EC1.5x SMN protein (EC1.5x concentration for SMN protein expression) (SMN protein) [µM],max. fold increase (maximum fold increase of SMN protein) (SMN protein),EC (1.5-fold) [1] [µM]
"Cc1cn2cc(NC(=O)c3ccc(N4CCN(C)CC4)cn3)nc2c(C)n1 [Example 9, N-(6,8-dimethyl-imidazo[1,2-a]-pyrazin-2-yl)-5-(4-methyl-piperazin-1-yl)picolinamide]",1.527,1.6085,0.794
"Cc1cn2cc(NC(=O)c3ccc(N4CCNCC4)cn3)nc2c(C)n1 [Example 11, N-(6,8-dimethyl-imidazo[1,2-a]-pyrazin-2-yl)-5-(piperazin-1-yl)picolinamide]",0.321,1.7143,0.297
"Cc1cn2cc(NC(=O)c3ccc(N4CCNC(C)(C)C4)nc3)ccc2n1 [Example 13, 6-(3,3-dimethyl-piperazin-1-yl)-N-(2-methyl-imidazo[1,2-a]-pyridin-6-yl)-nicotinamide]",1.7564,1.624,1.03
"Cc1cn2cc(NC(=O)c3ccc(N4CCNCC4)nc3)ccc2n1 [Example 14, N-(2-methyl-imidazo[1,2-a]-pyridin-6-yl)-6-(piperazin-1-yl)nicotinamide]",0.7944,1.5912,0.231
"Cc1cn2cc(NC(=O)c3ccc(N4C[C@H]5CNC[C@H]5C4)nc3)ccc2n1 [Example 15, 6-hexahydro-pyrrolo[3,4-c]-pyrrol-2(1H)-yl)-N-(2-methyl-imidazo[1,2-a]-pyridin-6-yl)-nicotinamide hydrochloride]",0.281,1.6859,0.254
"Cc1cn2cc(NC(=O)c3ccc(N4CC5(CNC5)C4)nc3)ccc2n1 [Example 16, N-(2-methyl-imidazo[1,2-a]-pyridin-6-yl)-6-(2,6-diazaspiro-[3,3]heptan-2-yl)nicotinamide hydrochloride]",1.1992,1.6598,1.04
"Cc1cn2cc(NC(=O)c3ccc(N4CCNCC4)nc3)cc(C(F)(F)F)c2n1 [Example 19, N-(2-methyl-8-(trifluoromethyl)-imidazo[1,2-a]-pyridin-6-yl)-6-(piperazin-1-yl)-nicotinamide]",1.3818,1.664,0.267
"Cc1cn2cc(NC(=O)c3ccc(N4CCN5CCC[C@H]5C4)nc3)cc(C(F)(F)F)c2n1 [Example 21, (S)-6-(hexahydro-pyrrolo[1,2-a]-pyrazin-2(1H)-yl)-N-(2-methyl-8-(trifluoromethyl)-imidazo[1,2-a]-pyridin-6-yl)-nicotinarnide]",0.6542,1.7755,0.386
"Cc1cn2cc(NC(=O)c3ccc(N4CC(C)NC(C)C4)nc3)cc(C(F)(F)F)c2n1 (stereo not drawn) [Example 22, 6-(3,5-dimethyl-piperazin-1-yl)-N-(2-methyl-8-(trifluoromethyl)-imidazo[1,2-a]-pyridin-6-yl)-nicotinamide]",0.4468,1.7566,0.263
"Cc1nc2c(F)cc(NC(=O)c3ccc(N4CC(C)NC(C)C4)nc3)cc2o1 (stereo not drawn) [Example 23, 6-(3,5-dimethyl-piperazin-1-yl)-N-(4-fluoro-2-methylbenzo[d]-oxazol-6-yl)-nicotinamide]",0.5092,1.6942,0.201
"Cc1nc2c(F)cc(NC(=O)c3ccc(N4CCN(C)CC4)nc3)cc2o1 [Example 24, N-(4-fluoro-2-methylbenzo[d]-oxazol-6-yl)-6-(4-methylpiperazin-1-yl)nicotinamide]",1.2616,1.756,0.649
"Cc1nc2c(F)cc(NC(=O)c3ccc(N4CCN5CCC[C@H]5C4)nc3)cc2o1 [Example 25, (S)-N-(4-fluoro-2-methylbenzo[d]oxa-zol-6-yl)-6-(hexa-hydropyrrolo[1,2-a]pyrazin-2-(1H)-yl)nicotinamide]",0.5694,1.6652,0.382
"Cc1nc2c(F)cc(NC(=O)c3ccc(N4CCNCC4)nc3)cc2o1 [Example 26, N-(4-Fluoro-2-methylbenzo-oxazol-6-yl)-6-piperazin-1-yl-nicotinamide]",0.2853,1.8316,0.0445
"Cc1nc2c(F)cc(NC(=O)c3ccc(N4CCNCC4)cc3)cc2o1 [Example 28, N-(4-fluoro-2-methylbenzo[d]-oxazol-6-yl)-4-(piperazin-1-yl)benzamide]",0.2868,1.7291,0.252
"Cc1nc2c(F)cc(NC(=O)c3ccc(N4CC(C)NC(C)C4)cc3)cc2o1 (stereo not drawn) [Example 30, 4-(3,5-dimethyl-piperazin-1-yl)-N-(4-fluoro-2-methyl-benzo[d]oxazol-6-yl)benzamide]",0.7612,1.6734,0.41
"Cc1cn2cc(NC(=O)c3ccc(N4CCN5CCC[C@H]5C4)cc3F)ccc2n1 [Example 31, (S)-2-fluoro-4-(hexahydropyrrolo[1,2-a]pyrazin-2(1H)-yl)-N-(2-methylimidazo[1,2-a]pyridin-6-yl)benzamide]",0.2746,1.7849,0.119
"Cc1cn2cc(NC(=O)c3ccc(N4CCN(C)CC4)nc3)cc(F)c2n1 [Example 32, N-(8-fluoro-2-methylimidazo-[1,2-a]pyridin-6-yl)-6-(4-methyl-piperazin-1-yl)-nicotinamide]",0.2028,1.7579,0.0938
"Cc1nc2c(F)cc(NC(=O)c3ccc(N4CCN5CCC[C@@H]5C4)cc3F)cc2o1 [Example 34, (R)-2-fluoro-N-(4-fluoro-2-methyl-benzo[d]oxazol-6-yl)-4-(hexahydro-pyrrolo[1,2-a]-pyrazin-2(1H)-yl)benzamide]",0.7793,1.6527,0.328
"Cc1cn2cc(NC(=O)c3ccc(N4CCN5CCC[C@H]5C4)cc3F)cc(C(F)(F)F)c2n1 [Example 35, (S)-2-fluoro-4-(hexahydro-pyrrolo[1,2-a]-pyrazin-2(1H)-yl)-N-(2-methyl-8-(trifluoro-methyl)imidazo-[1,2-a]pyridin-6-yl]benzamide]",1.2664,1.6275,0.202
"Cc1cn2cc(NC(=O)c3ccc(N4CCNCC4)cc3)cc(F)c2n1.Cl [Example 36, N-(8-fluoro-2-methylimidazo[1,2-a]pyridin-6-yl)-4-(piperazin-1-yl)benzamide hydrochloride]",0.1094,1.7018,0.0278
"Cc1cn2cc(NC(=O)c3ccc(N4CCNCC4)cc3F)cc(F)c2n1 [Example 40, 2-fluoro-N-(8-fluoro-2-methyl-imidazo[1,2-a]-pyridin-6-yl)-4-(piperazin-1-yl)benzamide dihydrochloride]",0.0276,1.7607,0.0108
"Cc1cn2cc(NC(=O)c3ccc(N4CCNCC4)cc3F)ccc2n1 [Example 44, 2-fluoro-N-(2-methylimidazo[1,2-a]pyridin-6-yl)-4-(piperazin-1-yl)-benzamidehydro-chloride]",0.13,1.8243,0.0648
